Experimental findings from ChEMBL document CHEMBL1201862, “PubChem BioAssay data set” (2004) are described below.

Test systems include HL-60; RXF 393; OVCAR-4; HOP-92; SNB-19; CCRF-CEM; SK-MEL-2; OVCAR-3; NCI/ADR-RES; SW-620; KM12; SNB-75; HCT-116; IGROV-1; NCI-H522; SF-539; NCI-H226; HCC 2998; UACC-257; SR.
What all share (test): NCI tumour cell line growth inhibition, 48 h

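Each compound was tested at five concentrations against cells in 96-well plates for 48 hours. GI50: concentration for 50% inhibition of growth.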 Active and inactive are the calls of the source. Rule as the data show it: active = GI50 up to about 1.1 µM and inactive = higher. Some results are limits rather than exact numbers.

In the case of `O=C1c2ccccc2C(O)(O)C1(O)C1(O)C(=O)c2ccccc2C1(O)O` (centres undefined), the GI50 in the test on HL-60 was 18.9 µM (inactive); in the test with RXF 393, 26.6 µM (inactive); in the test on OVCAR-4 it was 45.5 µM (inactive); in the test on HOP-92, 37.6 µM (inactive); in the test with SNB-19, 91.8 µM (inactive); with CCRF-CEM, 16.9 µM (inactive). Also, the GI50 was > 100 µM (inactive) in the test with SK-MEL-2; 25.1 µM (inactive) with OVCAR-3; 69.7 µM (inactive) with NCI/ADR-RES; 35.3 µM (inactive) with SW-620; 39.6 µM (inactive) in the test with KM12; 15.6 µM (inactive) in the test with SNB-75. In addition, the GI50 in the test with HCT-116 is 23.6 µM (inactive); in the test with IGROV-1, 41.7 µM (inactive); with NCI-H522, 19.4 µM (inactive); in the test with SF-539, 24.2 µM (inactive); in the test on NCI-H226 it was > 100 µM (inactive).
Consider `Cc1ccc(S(=O)(=O)N/N=C2\CC3C4C=CC3C2C4)cc1` (centres undefined), for which the GI50 with HL-60, with RXF 393, in the test with OVCAR-4, in the test on HOP-92, in the test with SNB-19 and with HCC 2998 was > 100 µM (inactive) throughout. Further, the GI50 in the test with CCRF-CEM, in the test on SK-MEL-2, in the test on OVCAR-3, with NCI/ADR-RES, in the test on SW-620 and in the test on KM12 was > 100 µM (inactive) throughout. Further, the GI50 with HCT-116, in the test on IGROV-1, in the test on NCI-H522, in the test on SF-539, with UACC-257 and in the test on NCI-H226 was > 100 µM (inactive) throughout.
As for `CCOc1ccc(NC(=O)CCc2nnc(SC)o2)cc1`, the GI50 is > 100 µM (inactive) in the test with HL-60; > 100 µM (inactive) in the test with RXF 393; > 100 µM (inactive) in the test on SR; > 100 µM (inactive) in the test with OVCAR-4; 82 µM (inactive) in the test on HOP-92; > 100 µM (inactive) in the test with SNB-19. Besides, the GI50 in the test on HCC 2998, in the test on CCRF-CEM, with SK-MEL-2, in the test on OVCAR-3, in the test on SW-620 and in the test on KM12 was > 100 µM (inactive) throughout. The GI50 in the test with SNB-75, with HCT-116, with IGROV-1, with NCI-H522, with SF-539 and in the test on UACC-257 was > 100 µM (inactive) in each case. Besides, in the test on NCI-H226, the GI50 is > 100 µM (inactive).
For the compound `O=C(Nc1ccc(N2C(=O)CSC2c2cccs2)cc1)c1ccc(N2C(=O)CSC2c2cccs2)cc1` (centres undefined), the GI50 in the test with RXF 393 was > 100 µM (inactive); with OVCAR-4, > 100 µM (inactive); with HOP-92, > 100 µM (inactive); with SNB-19, 49 µM (inactive); with HCC 2998, > 100 µM (inactive); in the test on CCRF-CEM, 44.2 µM (inactive). Besides, the GI50 in the test with SK-MEL-2, with OVCAR-3, with NCI/ADR-RES, in the test on SW-620, in the test on KM12 and in the test on SNB-75 was > 100 µM (inactive) each time. Also, the GI50 with HCT-116 is > 100 µM (inactive); in the test with IGROV-1 it was > 100 µM (inactive); in the test with NCI-H522, 36.1 µM (inactive); with SF-539 it was > 100 µM (inactive); in the test on UACC-257, > 100 µM (inactive).
In the case of `COc1ccccc1NC(=O)C1=C(C)NC(C)=C(C(=O)Nc2ccccc2OC)C1c1ccco1`, the GI50 in the test on HL-60 was 0.638 µM (active); in the test with RXF 393, 2.51 µM (inactive); with SR it was 1.34 µM (inactive); in the test on OVCAR-4 it was 8.57 µM (inactive); in the test on HOP-92, 3.98 µM (inactive); with SNB-19, 7.71 µM (inactive). For the same compound, the GI50 was 8.79 µM (inactive) in the test with HCC 2998; 5.06 µM (inactive) in the test on CCRF-CEM; 3.64 µM (inactive) with SK-MEL-2; 2.91 µM (inactive) with OVCAR-3; 4.49 µM (inactive) in the test on SW-620; 3.98 µM (inactive) in the test with KM12. The GI50 in the test on SNB-75 is 3.37 µM (inactive); in the test on HCT-116 it was 4.36 µM (inactive); in the test with IGROV-1 it was 9.14 µM (inactive); with NCI-H522, 2.66 µM (inactive); with SF-539, 4.13 µM (inactive); in the test with UACC-257 it was 9.55 µM (inactive). For the same compound, the GI50 in the test with NCI-H226 is 7.94 µM (inactive).
As for `OCC1OC(n2nc(-c3ccccc3)nc2-c2cnccn2)C(O)C1O` (centres undefined), the GI50 in the test on HL-60, in the test on OVCAR-4, in the test on HOP-92, in the test with SNB-19, in the test with HCC 2998 and with CCRF-CEM was > 100 µM (inactive) throughout. The GI50 in the test on OVCAR-3, in the test with NCI/ADR-RES, with SW-620, with KM12, in the test on SNB-75 and in the test with HCT-116 was > 100 µM (inactive) throughout. In addition, the GI50 in the test on IGROV-1, in the test with NCI-H522, in the test on SF-539 and in the test with UACC-257 was > 100 µM (inactive) each time.
Turning to `CCCCCCCCCCCCCCCC(=O)ON1C(=S)NC(C)(c2ccccc2)C1=S` (centres undefined), the GI50 is 94.6 µM (inactive) in the test with HL-60; > 100 µM (inactive) in the test with RXF 393; > 100 µM (inactive) in the test on OVCAR-4; > 100 µM (inactive) in the test on HOP-92; > 100 µM (inactive) in the test on SNB-19; 38.5 µM (inactive) in the test on HCC 2998. Besides, the GI50 in the test on CCRF-CEM was 36.4 µM (inactive); in the test with SK-MEL-2, > 100 µM (inactive); with OVCAR-3, > 100 µM (inactive); with NCI/ADR-RES, > 100 µM (inactive); in the test with KM12, > 100 µM (inactive); with SNB-75 it was > 100 µM (inactive). The GI50 with HCT-116 was > 100 µM (inactive); in the test with IGROV-1 it was 79.3 µM (inactive); with SF-539, > 100 µM (inactive); with UACC-257, > 100 µM (inactive); in the test with NCI-H226, 87.9 µM (inactive).
For `CCSC1=CC(Cc2ccc(OC)cc2)N(C(=O)OC)C1` (centres undefined), the GI50 is 21.9 µM (inactive) in the test with HL-60; 32.3 µM (inactive) with RXF 393; 26.3 µM (inactive) in the test with SR; > 100 µM (inactive) with OVCAR-4; 55.2 µM (inactive) with HOP-92; > 100 µM (inactive) in the test with SNB-19. For the same compound, the GI50 was > 100 µM (inactive) in the test on HCC 2998; 49.7 µM (inactive) in the test with CCRF-CEM; 97.7 µM (inactive) in the test with SK-MEL-2; 51.4 µM (inactive) in the test with OVCAR-3; 25.2 µM (inactive) in the test with SW-620; 97.7 µM (inactive) with KM12. Besides, the GI50 with SNB-75 was > 100 µM (inactive); in the test with HCT-116 it was 52.2 µM (inactive); in the test with IGROV-1, > 100 µM (inactive); in the test with NCI-H522 it was 52.6 µM (inactive); with SF-539, > 100 µM (inactive); with UACC-257, 90.6 µM (inactive). Moreover, the GI50 in the test with NCI-H226 is > 100 µM (inactive).
As to `Cc1nc(C)c(C(=O)Nc2cccc3c2C(=O)NC3=O)cc1C(=O)Nc1cccc2c1C(=O)NC2=O`, the GI50 in the test with HL-60, in the test with RXF 393, in the test on SR, in the test on OVCAR-4, in the test on HOP-92 and in the test with SNB-19 was > 100 µM (inactive) throughout. For the same compound, the GI50 with HCC 2998, with CCRF-CEM, in the test with SK-MEL-2, in the test on OVCAR-3, in the test on SW-620 and with KM12 was > 100 µM (inactive) in each case. Also, the GI50 in the test with SNB-75, in the test with HCT-116, in the test on IGROV-1, with NCI-H522, in the test on SF-539 and in the test with UACC-257 was > 100 µM (inactive) each time. For the same compound, in the test with NCI-H226, the GI50 was > 100 µM (inactive).
As for `S=c1sc2c(S)nc(S)nc2n1-c1ccccc1`, the GI50 with HL-60 is > 100 µM (inactive); in the test with RXF 393, > 100 µM (inactive); in the test with SR, > 100 µM (inactive); in the test on OVCAR-4, > 100 µM (inactive); in the test with HOP-92 it was 42.4 µM (inactive); in the test on SNB-19, > 100 µM (inactive). Also, the GI50 was > 100 µM (inactive) in the test on HCC 2998; 80.2 µM (inactive) in the test on CCRF-CEM; > 100 µM (inactive) in the test on SK-MEL-2; > 100 µM (inactive) in the test with OVCAR-3; > 100 µM (inactive) with SW-620; 54.5 µM (inactive) in the test on KM12. For the same compound, the GI50 with SNB-75 was 69.8 µM (inactive); with HCT-116, > 100 µM (inactive); in the test on IGROV-1, > 100 µM (inactive); in the test on NCI-H522, 41.5 µM (inactive); in the test on SF-539, > 100 µM (inactive); with UACC-257, > 100 µM (inactive). Also, in the test on NCI-H226, the GI50 was > 100 µM (inactive).
Turning to `CC(C)S(=O)(=O)ON1C(=O)c2ccc([N+](=O)[O-])cc2C1=O`, the GI50 with HL-60 was > 100 µM (inactive); with RXF 393, > 100 µM (inactive); in the test on SR, > 100 µM (inactive); in the test on OVCAR-4, > 100 µM (inactive); in the test with HOP-92 it was 41.9 µM (inactive); in the test on SNB-19 it was > 100 µM (inactive). In addition, the GI50 in the test on HCC 2998, in the test with CCRF-CEM, in the test with SK-MEL-2, in the test on OVCAR-3, in the test with SW-620 and in the test with KM12 was > 100 µM (inactive) throughout. Moreover, the GI50 in the test with SNB-75, with HCT-116, in the test with IGROV-1, in the test with NCI-H522, in the test on SF-539 and in the test on UACC-257 was > 100 µM (inactive) each time. The GI50 in the test on NCI-H226 is > 100 µM (inactive).
